Data: patent US20240150322A1, “CDK9 Inhibitors” (Biolexis Therapeutics, Inc., priority 2022, published 2024)
Blank lines part the entries; values can stand above or below the compound they belong to.

How the values were obtained:
CDK9/CycT1 = molecular target: T1, CDK9/CycT1 (Homo sapiens, UniProt P50750); test: ADP-Glo kinase assay; type: biochemical
T1 construct: purchased SignalChem
Procedure: ADP-Glo assay kit was purchased from Promega and the CDK9/CycT1 protein and PDKtide substrate were purchased from SignalChem. […] The reaction was started by pre-incubating 4 μL of protein (20 nM), 2 μL of substrate (100 μM), and 2 μL of serial diluted drug in 1× assay buffer (50 mM HEPES, 3 mM MgCl2, 3 mM MnCl2, and 1 mM DTT) for 30 minutes. After pre-incubating, 4 μL of ATP (1 μM) was added to each well and incubated for an additional 90 minutes. The ADP-Glo Reagent (10 μL) and Kinase Detection Reagent (20 μL) were added to each well and incubated as recommended by Promega. The reaction was quantified by measuring luminescence and the IC50 was calculated using GraphPad Prism software.

[1] = system: RWPE-1 Normal Prostate Cells; test: CellTiter-Glo 2D cell viability assay in normal prostate cells; type: cell-based
Procedure: (§1) Multiplexing the LDH-Glo Cytotoxicity Assay and CellTiter-Glo 2D Cell Viability Assay. […] Change in toxicity was measured using the LDH-Glo Cytotoxicity Assay by combining 50 μL diluted samples with 50 μL LDH Detection Reagent and recording luminescence after 1 hour incubation. After samples were removed for LDH measurement, an equal volume of CellTiter Glo 2D Reagent was added to the remaining cell suspension and luminescence was recorded after 30-minute incubation period.

[2] = system: RWPE-1 Normal Prostate Cells; test: LDH-Glo cytotoxicity assay in normal prostate cells; type: cell-based; details: Homo sapiens, 72 hours
Procedure: as §1

22Rv1 = test: 2D CellTiter-Glo cell viability assay; type: cell-based; details: Homo sapiens; 22Rv1, 72 hours
Procedure: (§2) CellTiter-Glo® 2.0 Luminescent cell viability assay reagent was purchased from Promega and 22Rv1 and LASCPC-01 cell lines were purchased from ATCC. […] An equal volume of CellTiter-Glo 2D Reagent was added to the cell suspensions and luminescence was recorded after 30-minute incubation period. […] FIG. 2 illustrates cellular antiproliferative efficacy of a benchmark CDK9 inhibitor AD-4573 on six prostate cancer cell lines over various concentrations.
(§3) CellTiter-Glo® 2.0 Luminescent cell viability assay reagent was purchased from Promega and 22Rv1, LASCPC-01, C4-2, C4-2B and NCI-H660, DU-145, PC-3 and LNCap cell lines were obtained from ATCC and a clinical core facility at Huntsman Cancer Institute. […] The results of cell viability were obtained and IC50 values were calculated (see Table 5, below) showing sub-micromolar cell killing of these prostate cancer cells.

DU-145 = test: 2D CellTiter-Glo cell viability assay; type: cell-based; details: Homo sapiens; DU-145, 72 hours
Procedure: as §2, §3

LASCPC-01 = test: 2D CellTiter-Glo cell viability assay; type: cell-based; details: 72 h, LASCPC-01, 72 hours
Procedure: as §2, §3

LNCap = test: 2D CellTiter-Glo cell viability assay; type: cell-based; details: Homo sapiens, 72 hours
Procedure: as §2, §3

NCI-H660 = test: 2D CellTiter-Glo cell viability assay; type: cell-based; details: NCI-H660, 72 hours
Procedure: as §2, §3

PC-3 = test: 2D CellTiter-Glo cell viability assay; type: cell-based; details: Homo sapiens, PC-3, 72 h
Procedure: as §2, §3

C4-2 = test: 2D CellTiter-Glo cell viability assay; type: cell-based, human; details: Homo sapiens, C4-2, 72 h
Procedure: as §3

C4-2B = test: 2D CellTiter-Glo cell viability assay; type: cell-based; details: 72 h
Procedure: as §3

T1 sequence (P50750 whole entry): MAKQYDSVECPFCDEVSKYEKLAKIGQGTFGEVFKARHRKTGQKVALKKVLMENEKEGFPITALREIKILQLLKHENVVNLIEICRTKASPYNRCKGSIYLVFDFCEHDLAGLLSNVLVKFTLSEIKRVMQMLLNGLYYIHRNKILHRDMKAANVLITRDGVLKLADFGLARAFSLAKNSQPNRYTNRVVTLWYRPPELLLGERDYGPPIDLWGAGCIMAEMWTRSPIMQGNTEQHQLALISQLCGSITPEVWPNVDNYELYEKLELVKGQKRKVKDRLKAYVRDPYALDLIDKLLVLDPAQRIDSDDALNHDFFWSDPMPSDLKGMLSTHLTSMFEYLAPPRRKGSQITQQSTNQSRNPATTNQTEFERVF
T1 sequence (O60563 whole entry partner): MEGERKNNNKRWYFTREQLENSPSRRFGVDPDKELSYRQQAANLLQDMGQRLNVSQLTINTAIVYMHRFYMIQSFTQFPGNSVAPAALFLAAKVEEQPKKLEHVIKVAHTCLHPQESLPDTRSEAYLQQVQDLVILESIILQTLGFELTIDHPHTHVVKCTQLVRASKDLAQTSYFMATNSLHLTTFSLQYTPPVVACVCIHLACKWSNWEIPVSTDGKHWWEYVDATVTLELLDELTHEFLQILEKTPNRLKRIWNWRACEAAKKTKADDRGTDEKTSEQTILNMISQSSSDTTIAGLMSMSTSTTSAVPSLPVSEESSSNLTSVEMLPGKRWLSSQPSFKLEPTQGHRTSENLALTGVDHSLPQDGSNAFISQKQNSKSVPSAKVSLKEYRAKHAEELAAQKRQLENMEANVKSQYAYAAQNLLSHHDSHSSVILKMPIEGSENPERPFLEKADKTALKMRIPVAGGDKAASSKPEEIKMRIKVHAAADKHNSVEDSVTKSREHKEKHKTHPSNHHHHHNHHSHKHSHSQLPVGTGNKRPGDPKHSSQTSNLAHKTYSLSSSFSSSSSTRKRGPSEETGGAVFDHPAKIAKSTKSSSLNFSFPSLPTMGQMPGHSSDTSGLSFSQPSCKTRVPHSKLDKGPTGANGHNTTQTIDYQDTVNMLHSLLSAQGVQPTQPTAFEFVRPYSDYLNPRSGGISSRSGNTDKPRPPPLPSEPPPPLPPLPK

Compound: CC(C)c1[nH]nc2ccc(-c3ccnc(N[C@H]4CC[C@H](N)C4)n3)cc12 [Compound I-7, (1S,3S)-N^1-(4-(3-isopropyl-2H-indazol-5-yl)pyrimidin-2-yl)cyclopentane-1,3-diamine]
- IC50 (CDK9/CycT1): < 50 nM

Compound: CC(C)c1c2nc(-c3ccnc(N[C@H]4CC[C@H](N)C4)n3)ccc2nn1C [Compound I-3, (1S,3S)-[3-[4-[3-isopropyl-2-methylpyrazolo[4,3-b]pyridin-5-yl]pyrimidin-2-yl]aminocyclopentan-1-yl]-1,3-diamine]
- IC50 (CDK9/CycT1): > 1000 nM

Compound: CC(=O)N[C@@H]1CCC[C@H](C(=O)Nc2cc(-c3cnn4c3CC(C)(C)C4)c(Cl)cn2)C1 [AZD-4573, reference compound]
- IC50 ([1]; Homo sapiens, RWPE-1 normal prostate cells, 72 hours): 8.4 nM
- toxicity to normal prostate cells ([1]; RWPE-1): highly toxic
- IC50 [2]: 151 nM
- IC50 (22Rv1): 67.1 nM
- IC50 (DU-145): 151 nM
- IC50 (LASCPC-01): 13.5 nM
- IC50 (LNCap): 1150 nM
- IC50 (NCI-H660): 0.221 nM
- IC50 (PC-3): 400 nM
- IC50 (C4-2): 0.237 nM
- IC50 (C4-2B): 0.398 nM

Compound: CC(C)c1c2cc(-c3ccnc(N[C@@H]4CC[C@H](N)C4)n3)ccc2nn1C [Compound I-1, (1S,3R)-[3-[4-(3-isopropyl-2-methylindazol-5-yl)pyrimidin-2-yl]aminocyclopentan-1-yl]-1,3-diamine]
- IC50 (CDK9/CycT1): < 50 nM

Compound: Cc1[nH]nc2ccc(-c3ccnc(N[C@H]4CC[C@H](N)C4)n3)cc12 [Compound I-9, (1S,3S)-N^1-(4-(3-methyl-2H-indazol-5-yl)pyrimidin-2-yl)cyclopentane-1,3-diamine]
- IC50 (CDK9/CycT1): 50 to 100 nM

Compound: Cn1cc2cc(-c3ccnc(N[C@H]4CC[C@H](N)C4)n3)ccc2n1 [Compound I-6, (1S,3S)-N^1-(4-(2-methyl-2H-indazol-5-yl)pyrimidin-2-yl)cyclopentane-1,3-diamine]
- IC50 (CDK9/CycT1): < 50 nM

Compound: CC(C)c1c2cc(-c3ccnc(N[C@H]4CC[C@H](N)C4)n3)cc(F)c2nn1C [Compound I-4, (1S,3S)-[3-[4-(7-fluoro-3-isopropyl-2-methylindazol-5-yl)pyrimidin-2-yl]aminocyclopentan-1-yl]-1,3-diamine]
- IC50 (CDK9/CycT1): < 50 nM

The next lines start with the values.

- IC50 (CDK9/CycT1): < 50 nM
Compound: CC(C)c1c2cc(-c3ccnc(N[C@H]4CC[C@H](N)C4)n3)cnc2nn1C [Compound I-10, (1S,3S)-N^1-(4-(3-isopropyl-2-methyl-2H-pyrazolo[3,4-b]pyridin-5-yl)pyrimidin-2-yl)cyclopentane-1,3-diamine]

- IC50 (CDK9/CycT1): < 50 nM
Compound: CC(C)c1c2cc(-c3ccnc(N[C@H]4C[C@@H]5CCC4C5)n3)ccc2nn1C (stereo in doubt) [Compound I-13, N-((1R,2S,4R)-bicyclo[2.2.1]heptan-2-yl)-4-(3-isopropyl-2-methyl-2H-indazol-5-yl)pyrimidin-2-amine]

- IC50 (CDK9/CycT1): < 50 nM
Compound: CC(C)c1c2cc(-c3ccnc(N[C@H]4C[C@@H]5CCC4C5)n3)cnc2nn1C (stereo in doubt) [Compound I-14, N-((1R,2S,4R)-bicyclo[2.2.1]heptan-2-yl)-4-(3-isopropyl-2-methyl-2H-pyrazolo[3,4-b]pyridin-5-yl)pyrimidin-2-amine]

- IC50 (CDK9/CycT1): > 1000 nM
Compound: CC(C)c1nn(C)c2ncc(-c3ccnc(N[C@H]4CC[C@H](N)C4)n3)cc12 [Compound I-11, (1S,3S)-N^1-(4-(3-isopropyl-1-methyl-1H-pyrazolo[3,4-b]pyridin-5-yl)pyrimidin-2-yl)cyclopentane-1,3-diamine]
